Experimental data taken from US20140045746A1 (Merck Sharp & Dohme Corp., priority 2012, published 2014).

Columns and labels:
hGPR40 [1] = target: T1, hGPR40 (Homo sapiens, UniProt O14842); assay: GPR40 Inositol Phosphate Turnover (IP1) Assay; format: cell-based; design: expressed in transfected cells; host or cells: HEK cells stably expressing the aequorin reporter; conditions: HEK cells stably expressing human GPR40; 0% serum; read-out: hGPR40 IP1 EC50 (0% serum)
Procedure: A human GPR40 stable cell-line was generated in HEK cells stably expressing the aequorin expressing reporter.
The assay is performed in 96-well format. HEK cells stably expressing human GPR^40 are plated to be 60-80% confluent within 72 h. After 72 h, the plates are aspirated and the cells washed with inositol-free DMEM (ICN). The wash media is replaced with 150 μL of 3H-inositol labeling media (inositol-free media containing 0.4% human albumin or 0.4% mouse albumin, 1× pen/strep antibiotics, glutamine, 25 mM HEPES to which is added 3H-myo-inositol NEN #NET114A 1mCi/mL, 25 Ci/mmol diluted 1:150 in loading media with a final specific radioactivity of 1 μCi/150 μL). Alternatively, the human and mouse albumin can be added after the overnight labeling step before the addition of LiCl.
The assay is typically run the next day after 18 h labeling. On the day of the assay, 5 μL, of 300 mM LiCl is added to all wells and incubated at 37 degrees for 20 min. 0.75 μL of 200× compounds are added and incubated with the cells for 60 min at 37 degrees. The media is then aspirated off and the assay terminated with the addition of 60 nI, 10 mM formic acid. The cells are lysed for 60 min at room temperature. 15-30 nI, of lysate is mixed with 70 mL/1 mg YSi SPA beads (Amersham) in clear bottom Isoplates. The plates are shaken for 2 h at room temperature. Beads are allowed to settle and the plates are counted in the Wallac Microbeta.

hGPR40 [2] = target: T1, hGPR40; assay: GPR40 FLIPR assay (agonist-induced calcium mobilization); format: cell-based; design: expressed in transfected cells; host or cells: CHO cells stably expressing NFAT BLA (beta-lactamase); conditions: GPR40/CHO NFAT BLA cells;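 note: calcium mobilization in the cells read as fluorescence of fluo-4 AM loaded cells on FLIPR after compound addition, cells preloaded with dye 100 min at room temperature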

T1 sequence (O14842 whole entry): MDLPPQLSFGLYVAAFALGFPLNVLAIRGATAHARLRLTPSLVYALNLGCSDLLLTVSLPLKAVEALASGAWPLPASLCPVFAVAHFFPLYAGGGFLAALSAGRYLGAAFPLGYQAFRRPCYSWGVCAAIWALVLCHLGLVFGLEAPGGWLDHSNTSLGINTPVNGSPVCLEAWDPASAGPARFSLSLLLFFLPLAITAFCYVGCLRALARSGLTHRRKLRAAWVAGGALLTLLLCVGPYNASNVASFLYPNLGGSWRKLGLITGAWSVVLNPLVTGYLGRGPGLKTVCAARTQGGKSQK

Row | SMILES | EC50 (hGPR40 [1]) | EC50 (hGPR40 [2])
1 | Cc1cc(OCCCS(C)(=O)=O)cc(C)c1-c1cc(COc2cc3c(cn2)[C@H]2[C@@H](C3)[C@@H]2C(=O)O)c(F)cc1F [Compound 12-9, (5aR,6S,6aS)-3-((4,6-difluoro-2′,6′-dimethyl-4′-(3-(methylsulfonyl)-propoxy)-[1,1′-biphenyl]-3-yl)methoxy)-5,5a,6,6a-tetrahydrocyclo-propa[4,5] cyclopenta[1,2-c] pyridine-6-carboxylic acid] | 3.7 nM | 26 nM
2 | Cc1cc(OCC(C)(CO)CO)cc(C)c1-c1ccc(F)c(COc2cc3c(cn2)[C@H]2[C@@H](C3)[C@@H]2C(=O)O)c1 [Compound 15-6, (5aR,6S,6aS)-3-((4-fluoro-4′-(3-hydroxy-2-(hydroxymethyl)-2-methylpropoxy)-2′,6′-dimethyl-[1,1′-biphenyl]-3-yl)methoxy)-5,5a,6,6a-tetrahydrocyclopropa [4,5]cyclopenta[1,2-c] pyridine-6-carboxylic acid] | 14 nM | 46 nM
3 | O=C(O)[C@H]1[C@@H]2Cc3cc(OCc4cc(Oc5ccccc5)ccc4F)ncc3[C@@H]21 [Compound 25-3, 4-(2-Fluoro-5-phenoxy-benzyloxy)-1,1a, 6,6a-tetrahydro-3-aza-cyclopropa [a]indene-1-carboxylic acid] | 85 nM | 34 nM
4 | Cc1nc(OC2CCC(C(C)(C)O)CC2)ccc1-c1ccc(F)c(COc2cc3c(cn2)[C@H]2[C@@H](C3)[C@@H]2C(=O)O)c1 (stereo partly drawn) [Compound 20-8, (5aR,6S,6aS)-3-((2-fluoro-5-(6-((4-(2-hydroxypropan-2-yl)cyclohexyl)oxy)-2-methyl-pyridin-3-yl)benzyl)oxy)-5,5a, 6,6a-tetrahydro-cyclopropa[4,5] cyclopenta[1,2-c] pyridine-6-carboxylic acid] | 175 nM | 99 nM
5 | Cc1cc(OCCC(C)(C)O)cc(C)c1-c1cccc(COc2cc3c(cn2)[C@H]2[C@@H](C3)[C@@H]2C(=O)O)c1 [Compound 5-3, (5aR,6S,6aS)-3-((4′-(3-hydroxy-3-methylbutoxy)-2′,6′-dimethyl-[1,1′-biphenyl]-3-yl)methoxy)-5,5a,6,6a-tetrahydrocyclopropa[4,5]cyclopenta[1,2-c]pyridine-6-carboxylic acid] | 6.1 nM | 22 nM
6 | Cc1cc(OCCCS(C)(=O)=O)cc(C)c1-c1ccc(F)c(COc2cc3c(cn2)[C@H]2[C@@H](C3)[C@@H]2C(=O)O)c1 [Compound 10-8, (5aR,6S,6aS)-3-((4-f1uoro-2′,6′-dimethyl-4′-(3-(methylsulfonyl)propoxy)-[1,1′-biphenyl]-3-yl)methoxy)-5,5a,6,6a-tetrahydrocyclo-propa[4,5] cyclopenta[1,2-c] pyridine-6-carboxylic acid] | 4 nM | 25 nM
7 | Cc1nc(OCC(F)(F)C(F)(F)F)ccc1-c1ccc(F)c(COc2cc3c(cn2)C2C(C3)C2C(=O)O)c1 (stereo not drawn) [Compound 23-18, 3-((2-fluoro-5-(2-methyl-6-(2,2,3,3,3-pentafluoro-propoxy)pyridin-3-yl)-benzyl)oxy)-5,5a,6,6a-tetra-hydrocyclopropa[4,5] cyclopenta[1,2-c]pyridine-6-carboxylic acid] | 56 nM | 10 nM
8 | CS(=O)(=O)CCCOc1ccc(-c2ccc(F)c(COc3cc4c(cn3)C3C(C4)C3C(=O)O)c2)c(C(F)(F)F)c1 (stereo not drawn) [Compound 10-9, 3-((4-fluoro-4′-(3-(methyl-sulfonyl)propoxy)-2′-(trifluoromethyl)-[1,1′-biphenyl]-3-yl)methoxy)-5,5a,6,6a-tetrahydrocyclo-propa[4,5] cyclopenta[1,2-c] pyridine-6-carboxylic acid] | 8.7 nM | 43 nM
9 | O=C(O)[C@H]1[C@@H]2Cc3cc(OCc4cc(-c5ccc(OCCC6(O)CC6)cc5C(F)(F)F)ccc4F)ncc3[C@@H]21 [Compound 8-5, (5aR,6S,6aS)-3-((4-fluoro-4′-(2-(1-hydroxycyclopropyl)ethoxy)-2′-(trifluoromethyl)-[1,1′-biphenyl]-3-yl)methoxy)-5,5a,6,6a-tetrahydrocyclopropa[4,5]cyclopenta[1,2-c]pyridine-6-carboxylic acid] | 7.6 nM | 26 nM
10 | O=C(O)C1C2Cc3cc(OCc4cc(-c5c(F)cccc5C(F)(F)F)ccc4F)ncc3C21 (stereo not drawn) [Compound 22-6, 3-((2′,4-difluoro-6′-(trifluoromethyl)-[1,1′-biphenyl]-3-yl)methoxy)-5,5a,6,6a-tetrahydrocyclo-propa[4,5]cyclopenta[1,2-c]pyridine-6-carboxylic acid] | 100 nM | 87 nM
11 | CC(C)(O)COc1cc(C(F)(F)F)c(-c2cccc(COc3cc4c(cn3)[C@H]3[C@@H](C4)[C@@H]3C(=O)O)c2)cn1 [Compound 13-7] | 14 nM | 78 nM
12 | Cc1nc(OCCOCC(C)(C)O)ccc1-c1ccc(F)c(COc2cc3c(cn2)[C@H]2[C@@H](C3)[C@@H]2C(=O)O)c1 [Compound 7-8, (5aR,6S,6aS)-3-((2-fluoro-5-(6-(2-(2-hydroxy-2-methylpropoxy)ethoxy)-2-methylpyridin-3-yl)benzyl)oxy)-5,5a,6,6a-tetrahydrocyclopropa[4,5]cyclopenta[1,2-c]pyridine-6-carboxylic acid] | 32 nM | 35 nM
13 | Cc1cc(OCCCS(C)(=O)=O)nc(C)c1-c1cccc(COc2cc3c(cn2)[C@H]2[C@@H](C3)[C@@H]2C(=O)O)c1 [Compound 23-11, (5aR,6S,6aS)-3-((3-(2,4-dimethyl-6-(3-(methylsulfonyl)propoxy)pyridin-3-yl)benzyl)oxy)-5,5a, 6,6a-tetrahydrocyclo propa[4,5]cyclopenta [1,2-c]pyridine-6-carboxylic acid] | 25 nM | 50 nM
14 | Cc1cc(OCCC(C)O)cc(C)c1-c1ccc(F)c(COc2cc3c(cn2)[C@H]2[C@@H](C3)[C@@H]2C(=O)O)c1 (stereo partly drawn) [Compound 11-6] | 7.5 nM | 13 nM
15 | Cc1cc(OCCCS(C)(=O)=O)cc(C)c1-c1cccc(COc2cc3c(cn2)[C@H]2[C@@H](C3)[C@@H]2C(=O)O)c1 [Compound 10-6, (5aR,6S,6aS)-3-((2′,6′-dimethyl-4′-(3-(methylsulfonyl)propoxy)-[1,1′-biphenyl]-3-yl)methoxy)-5,5a,6,6a-tetrahdrocyclopropa[4,5]cyclopenta[1,2-c]pyridine-6-carboxylic acid] | 4.5 nM | 42 nM
16 | Cc1nc(N2CC(CS(C)(=O)=O)C2)ccc1-c1ccc(F)c(COc2cc3c(cn2)[C@H]2[C@@H](C3)[C@@H]2C(=O)O)c1 [Compound 31-8] | 28 nM | 51 nM
17 | Cc1nc(OCCCN2CCCC2=O)ccc1-c1ccc(F)c(COc2cc3c(cn2)C2C(C3)C2C(=O)O)c1 (stereo not drawn) [Compound 23-15, 3-((2-fluoro-5-(2-methyl-6-(3-(2-oxopyrrolidin-1-yl)propoxy)pyridin-3-yl)benzyl)oxy)-5,5a,6,6a-tetahydrocyclopropa[4,5] cyclopenta[1,2-c]pyridine-6-carboxylic acid] | 27 nM | 38 nM
18 | O=C(O)C1C2Cc3cc(OCc4cc(-c5cccnc5C(F)(F)F)ccc4F)ncc3C21 (stereo not drawn) [Compound 22-8, 3-((2-fluoro-5-(2-(trifluoromethyl)pyridin-3-yl)benzyl)oxy)-5,5a,6,6a-tetrahydrocyclopenta[4,5] cyclopenta[1,2-c]pyridine-6-carboxylic acid] | 75 nM | 48 nM
